# In PubChem BioAssay (NCI):
#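 Compound exposure: 48 hours, 5 concentrations, 96-well plates. GI50 marks 50% less growth. The concentration for full growth arrest is given as TGI.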
# How the values were obtained:
# Test in all cases: NCI-60 cell line screen, 48 h
# ACHN renal = system: ACHN renal
# DU-145 prostate = system: DU-145 prostate
# EKVX NSCLC = system: EKVX NSCLC
# HCT-15 colon = system: HCT-15 colon
# MDA-MB-231 breast = system: MDA-MB-231 breast
# NCI/ADR-RES ovarian = system: NCI/ADR-RES ovarian
# OVCAR-5 ovarian = system: OVCAR-5 ovarian
# SF-295 CNS = system: SF-295 CNS
# SK-MEL-28 melanoma = system: SK-MEL-28 melanoma
# T-47D breast = system: T-47D breast
# UACC-257 melanoma = system: UACC-257 melanoma
# UACC-62 melanoma = system: UACC-62 melanoma
# 786-0 renal = system: 786-0 renal
# A498 renal = system: A498 renal
# A549 NSCLC = system: A549 NSCLC
# BT-549 breast = system: BT-549 breast
# CAKI-1 renal = system: CAKI-1 renal
# CCRF-CEM leukemia = system: CCRF-CEM leukemia
# COLO 205 colon = system: COLO 205 colon
# HCC-2998 colon = system: HCC-2998 colon
# HCT-116 colon = system: HCT-116 colon
# HL-60(TB) leukemia = system: HL-60(TB) leukemia
# HOP-62 NSCLC = system: HOP-62 NSCLC
# HS 578T breast = system: HS 578T breast
# IGROV1 ovarian = system: IGROV1 ovarian
# K-562 leukemia = system: K-562 leukemia
# KM12 colon = system: KM12 colon
# LOX IMVI melanoma = system: LOX IMVI melanoma
# M14 melanoma = system: M14 melanoma
# MALME-3M melanoma = system: MALME-3M melanoma
# MCF7 breast = system: MCF7 breast
# MDA-MB-435 = system: MDA-MB-435
# MOLT-4 leukemia = system: MOLT-4 leukemia
# NCI-H226 lung = system: NCI-H226 lung
# NCI-H23 lung = system: NCI-H23 lung
# NCI-H460 lung = system: NCI-H460 lung
# NCI-H522 lung = system: NCI-H522 lung
# OVCAR-3 ovarian = system: OVCAR-3 ovarian
# OVCAR-8 ovarian = system: OVCAR-8 ovarian
# PC-3 prostate = system: PC-3 prostate
# RPMI-8226 leukemia = system: RPMI-8226 leukemia
# RXF 393 renal = system: RXF 393 renal
# SF-268 CNS = system: SF-268 CNS
# SF-539 CNS = system: SF-539 CNS
# SK-MEL-2 melanoma = system: SK-MEL-2 melanoma
# SK-MEL-5 melanoma = system: SK-MEL-5 melanoma
# SN12C renal = system: SN12C renal
# SR leukemia = system: SR leukemia
# SW-620 colon = system: SW-620 colon
# TK-10 renal = system: TK-10 renal
# U251 CNS = system: U251 CNS
# UO-31 renal = system: UO-31 renal
# HT29 colon = system: HT29 colon
# OVCAR-4 ovarian = system: OVCAR-4 ovarian
# SK-OV-3 ovarian = system: SK-OV-3 ovarian
# SNB-19 CNS = system: SNB-19 CNS
smiles,measurement,setting,value
CCCCCCCCCCCCCCCCCCOc1ccccc1CC(=O)OCC[N+](C)(C)C,GI50,ACHN renal,1.75 µM
same,TGI,ACHN renal,3.72 µM
same,GI50,DU-145 prostate,1.71 µM
same,TGI,DU-145 prostate,3.09 µM
same,GI50,EKVX NSCLC,2.17 µM
same,TGI,EKVX NSCLC,5.4 µM
same,GI50,HCT-15 colon,2.94 µM
same,TGI,HCT-15 colon,11.5 µM
same,GI50,MDA-MB-231 breast,1.57 µM
same,TGI,MDA-MB-231 breast,3.21 µM
same,GI50,NCI/ADR-RES ovarian,9.84 µM
same,TGI,NCI/ADR-RES ovarian,35.7 µM
same,GI50,OVCAR-5 ovarian,1.45 µM
same,TGI,OVCAR-5 ovarian,2.89 µM
same,GI50,SF-295 CNS,2.03 µM
same,TGI,SF-295 CNS,4.52 µM
same,GI50,SK-MEL-28 melanoma,1.63 µM
same,TGI,SK-MEL-28 melanoma,3.57 µM
same,GI50,T-47D breast,2.06 µM
same,TGI,T-47D breast,4.89 µM
same,GI50,UACC-257 melanoma,2.34 µM
same,TGI,UACC-257 melanoma,6.34 µM
same,GI50,UACC-62 melanoma,1.57 µM
same,TGI,UACC-62 melanoma,3.51 µM
Cn1c2ccccc2c2c(=O)n(CCCC(=O)NCC(=O)OC(=NC3CCCCC3)NC3CCCCC3)c3c(-c4ccccc4)nnn3c21,GI50,786-0 renal,18.5 µM
same,TGI,786-0 renal,45.1 µM
same,GI50,A498 renal,30.6 µM
same,TGI,A498 renal,> 100 µM
same,GI50,A549 NSCLC,38 µM
same,TGI,A549 NSCLC,> 100 µM
same,GI50,ACHN renal,26.3 µM
same,TGI,ACHN renal,> 100 µM
same,GI50,BT-549 breast,27 µM
same,TGI,BT-549 breast,> 100 µM
same,GI50,CAKI-1 renal,32.1 µM
same,TGI,CAKI-1 renal,> 100 µM
same,GI50,CCRF-CEM leukemia,8.36 µM
same,TGI,CCRF-CEM leukemia,57.7 µM
same,GI50,COLO 205 colon,2.81 µM
same,TGI,COLO 205 colon,> 100 µM
same,GI50,DU-145 prostate,18.4 µM
same,TGI,DU-145 prostate,> 100 µM
same,GI50,HCC-2998 colon,10.2 µM
same,TGI,HCC-2998 colon,26.8 µM
same,GI50,HCT-116 colon,14.3 µM
same,TGI,HCT-116 colon,42.7 µM
same,GI50,HCT-15 colon,10.8 µM
same,TGI,HCT-15 colon,> 100 µM
same,GI50,HL-60(TB) leukemia,2.86 µM
same,TGI,HL-60(TB) leukemia,8.31 µM
same,GI50,HOP-62 NSCLC,15.3 µM
same,TGI,HOP-62 NSCLC,36.6 µM
same,GI50,HS 578T breast,9.43 µM
same,TGI,HS 578T breast,> 100 µM
same,GI50,IGROV1 ovarian,2.84 µM
same,TGI,IGROV1 ovarian,33 µM
same,GI50,K-562 leukemia,23 µM
same,TGI,K-562 leukemia,> 100 µM
same,GI50,KM12 colon,31.3 µM
same,TGI,KM12 colon,> 100 µM
same,GI50,LOX IMVI melanoma,13.1 µM
same,TGI,LOX IMVI melanoma,97.3 µM
same,GI50,M14 melanoma,31.2 µM
same,TGI,M14 melanoma,> 100 µM
same,GI50,MALME-3M melanoma,47.2 µM
same,TGI,MALME-3M melanoma,> 100 µM
same,GI50,MCF7 breast,3.62 µM
same,TGI,MCF7 breast,> 100 µM
same,GI50,MDA-MB-231 breast,12.4 µM
same,TGI,MDA-MB-231 breast,37.7 µM
same,GI50,MDA-MB-435,25.3 µM
same,TGI,MDA-MB-435,> 100 µM
same,GI50,MOLT-4 leukemia,14.5 µM
same,TGI,MOLT-4 leukemia,> 100 µM
same,GI50,NCI-H226 lung,40 µM
same,TGI,NCI-H226 lung,> 100 µM
same,GI50,NCI-H23 lung,15.6 µM
same,TGI,NCI-H23 lung,33 µM
same,GI50,NCI-H460 lung,32 µM
same,TGI,NCI-H460 lung,> 100 µM
same,GI50,NCI-H522 lung,15.9 µM
same,TGI,NCI-H522 lung,80.4 µM
same,GI50,NCI/ADR-RES ovarian,15.6 µM
same,TGI,NCI/ADR-RES ovarian,33.5 µM
same,GI50,OVCAR-3 ovarian,19.6 µM
same,TGI,OVCAR-3 ovarian,96.2 µM
same,GI50,OVCAR-5 ovarian,15.3 µM
same,TGI,OVCAR-5 ovarian,32.5 µM
same,GI50,OVCAR-8 ovarian,7.37 µM
same,TGI,OVCAR-8 ovarian,> 100 µM
same,GI50,PC-3 prostate,22.7 µM
same,TGI,PC-3 prostate,> 100 µM
same,GI50,RPMI-8226 leukemia,4.26 µM
same,TGI,RPMI-8226 leukemia,21.2 µM
same,GI50,RXF 393 renal,11.1 µM
same,TGI,RXF 393 renal,36.9 µM
same,GI50,SF-268 CNS,15 µM
same,TGI,SF-268 CNS,> 100 µM
same,GI50,SF-295 CNS,> 100 µM
same,TGI,SF-295 CNS,> 100 µM
same,GI50,SF-539 CNS,19.9 µM
same,TGI,SF-539 CNS,58.1 µM
same,GI50,SK-MEL-2 melanoma,33.1 µM
same,TGI,SK-MEL-2 melanoma,> 100 µM
same,GI50,SK-MEL-5 melanoma,5.98 µM
same,TGI,SK-MEL-5 melanoma,31.6 µM
same,GI50,SN12C renal,19.5 µM
same,TGI,SN12C renal,50.7 µM
same,GI50,SR leukemia,3.04 µM
same,TGI,SR leukemia,5.09 µM
same,GI50,SW-620 colon,3.76 µM
same,TGI,SW-620 colon,> 100 µM
same,GI50,TK-10 renal,> 100 µM
same,TGI,TK-10 renal,> 100 µM
same,GI50,U251 CNS,12.4 µM
same,TGI,U251 CNS,38.3 µM
same,GI50,UACC-257 melanoma,66.4 µM
same,TGI,UACC-257 melanoma,> 100 µM
same,GI50,UACC-62 melanoma,25.8 µM
same,TGI,UACC-62 melanoma,> 100 µM
same,GI50,UO-31 renal,31.3 µM
same,TGI,UO-31 renal,> 100 µM
O=c1c2cc(I)ccc2nc(-c2cccs2)n1Nc1ccccc1,TGI,A549 NSCLC,> 100 µM
same,TGI,ACHN renal,> 100 µM
same,TGI,BT-549 breast,> 100 µM
same,TGI,CAKI-1 renal,65.9 µM
same,GI50,CCRF-CEM leukemia,50.7 µM
same,TGI,CCRF-CEM leukemia,> 100 µM
same,TGI,COLO 205 colon,3.66 µM
same,TGI,EKVX NSCLC,58.4 µM
same,TGI,HCC-2998 colon,50.8 µM
same,TGI,HCT-116 colon,> 100 µM
same,TGI,HCT-15 colon,> 100 µM
same,TGI,HL-60(TB) leukemia,> 100 µM
same,TGI,HOP-62 NSCLC,68.6 µM
same,TGI,HT29 colon,> 100 µM
same,TGI,IGROV1 ovarian,> 100 µM
same,GI50,K-562 leukemia,0.301 µM
same,TGI,K-562 leukemia,22.9 µM
same,TGI,KM12 colon,> 100 µM
same,TGI,LOX IMVI melanoma,> 100 µM
same,TGI,M14 melanoma,> 100 µM
same,GI50,MCF7 breast,1.99 µM
same,TGI,MCF7 breast,> 100 µM
same,TGI,MDA-MB-435,> 100 µM
same,TGI,MOLT-4 leukemia,> 100 µM
same,TGI,NCI-H226 lung,> 100 µM
same,TGI,NCI-H23 lung,91 µM
same,TGI,NCI-H460 lung,> 100 µM
same,TGI,NCI-H522 lung,> 100 µM
same,TGI,NCI/ADR-RES ovarian,> 100 µM
same,TGI,OVCAR-3 ovarian,6.52 µM
same,TGI,OVCAR-4 ovarian,> 100 µM
same,TGI,OVCAR-5 ovarian,> 100 µM
same,TGI,OVCAR-8 ovarian,> 100 µM
same,TGI,PC-3 prostate,> 100 µM
same,TGI,RPMI-8226 leukemia,> 100 µM
same,TGI,RXF 393 renal,> 100 µM
same,TGI,SF-268 CNS,> 100 µM
same,TGI,SF-295 CNS,32.9 µM
same,TGI,SF-539 CNS,> 100 µM
same,TGI,SK-MEL-2 melanoma,1.63 µM
same,TGI,SK-MEL-28 melanoma,> 100 µM
same,TGI,SK-MEL-5 melanoma,> 100 µM
same,TGI,SK-OV-3 ovarian,74.4 µM
same,TGI,SN12C renal,> 100 µM
same,TGI,SNB-19 CNS,76.6 µM
same,TGI,SR leukemia,> 100 µM
same,TGI,SW-620 colon,> 100 µM
same,TGI,U251 CNS,> 100 µM
same,GI50,UACC-257 melanoma,32.3 µM
same,TGI,UACC-257 melanoma,> 100 µM
same,TGI,UACC-62 melanoma,> 100 µM
same,TGI,UO-31 renal,> 100 µM
